This note sets out measurements from patent US11634378B2, “Compounds and methods targeting GPER in calcium disorders” (Saint Louis University, priority 2017, dated 2023).

Assay [1] addresses T1, GPER (Homo sapiens, UniProt Q99527).
T1 construct: HL-60 cells (a human promyelocytic leukemia cell line) which endogenously expresses GPER; host or cells: HL-60
As to the kind of experiment: Calcium mobilization antagonism assay in indo1-AM-loaded HL-60 cells (against EC80 of G-1). Format: cell-based. The following applies: Table 3; HL-60 cells endogenously expressing GPER; mean ± SD of three IC50 values from triplicates; read-out: IC50 (nM) of the inhibition of calcium mobilization. How it is done:
Human Myelocytic Leukemia (HL-60) cells were grown in phenol red free media containing 10% […] fetal bovine serum (FBS), 1% Pen-Strep, and 1% Glutamax. Cells were grown to no more than 1×10^6 cells/mL to prevent differentiation before being split. Prior to assay cells were transferred to phenol red free media containing charcoal-stripped FBS. On the day of the assay cells were centrifuged down at 16.4 G for 5 minutes and washed with 50:1 HBSS/HEPES. Cells were resuspended at 1×10^7 cells/mL in 50:1 HBSS/HEPES. To the resuspended cells, 0.05% pluronic acid and 5 uM of fluorescent calcium indicator, Indo-1AM, were added. The dye solution was incubated for 0.5 hrs at room temperature with rocking. After 30 minutes cells were spun down, and resuspended in 50:1 HBSS/HEPES. Cells were placed on ice for at least 5 minutes and then resuspended in 8.5 mL of 50:1 HBSS/HEPES (containing probenacid) for agonism assays or 6.5 mL of 50:1 HBSS/HEPES (containing probenacid) for antagonism assays. For agonism assays 160 μL of cell suspension were added to a 96-well plate and were incubated at 37° for 10 minutes in a FlexStation® 3 plate reader (Molecular Devices). Inside the plate reader, 40 μL of agonist were added to each well and excited with 350 nm and read at emissions of 405 nm and 490 nm. For antagonist assays, 120 μL of cell suspension were added to a 96-well plate. In addition to the cell suspension 40 μL of antagonist were added to the wells. Cells with antagonists were incubated at 37° for 15 minutes in FlexStation® 3 plate reader (Molecular Devices). Inside the plate reader, 40 μL of agonist at the EC80 were added to each well and excited with 350 nm and read at emissions of 405 nm and 490 nm.
In vitro biological evaluation using calcium mobilization. HL-60 cells were grown in 10% charcoal-stripped RPMI 72 hours before assays were performed. Cells were centrifuged and counted with a hemocytometer from Hausser Scientific (Bedford, Mass.). The assay required 100,000 cells per well, for a total number of cells on a 96-well plate assay of about 1×10 (Matthews and Gustafsson, 2003). HL-60 cells (1×10 (Matthews and Gustafsson, 2003)) were incubated in 50:1 Hanks balanced salt solution (Millipore Sigma, Saint Louis, Mo. and HEPES (Gibco by Life Technologies, Gaithersburg, Md.) containing 5 μM indo1-AM (Thermo Fischer Scientific, Waltham, Mass.) and 0.05% pluronic acid (AAT Bioquest Inc., Sunnyvale, Calif.) for 0.5 h at RT. Cells were spun down and washed with 50:1 HBSS/HEPES, and resuspended in media. Resuspension was placed on ice for no longer than 5 mins. Cells were loaded into plate at 100,000 cells/well. For agonist cells were immediately incubated for 15 mins at 37° C. Following the 15 mins incubation FlexStation 3 Multimode Plate Reader (Molecular Devices, Sunnyvale, Calif.) added the appropriate amount of agonist and was read for 150 seconds at 37° C. For antagonists once the cells were seeded, antagonist was added and incubated for 15 mins at 37° C. After 15 mins of equilibration, the EC80 of G-1 was added by the FlexStation and read for 150 secs at 37° C. Calcium mobilization was determined ratiometrically using λex 350 nm and λem 405/490 nm.

For assay [2], the target named is T1, GPER. As to the kind of experiment: cAMP HTRF antagonism assay (G-1 induced inhibition of adenylate cyclase) in HL-60 cells. Format: cell-based. The protocol:
In vitro cAMP biological evaluation. A homogeneous time resolved fluorescence (HTRF®) components for cAMP was purchased by CisBio (Bedford, Mass.). HL-60 cells were grown in 10% charcoal-stripped RPMI media for 72 hours prior to assays. Cells were centrifuged and counted with a hemocytometer from Hausser Scientific (Horsham, Pa.). The total number of cells needed to complete the assay was determined based upon 8,000 cells/well. The determined number of cells was diluted in 5:1 (5×) stimulation buffer contain 500 μM of 3-isobutyl-1-methylxanthine (IBMX) (Sigma Aldrich, Saint Louis, Mo.). To an HTRF 96-well low volume white plate from CisBio, 5 μL of cold cell suspension was added to each plate, followed by 4 μL of (2.5×) of agonist or stimulation buffer (negative control and non-stimulated cells). Cells were covered with a clear plastic film and incubated at 37° C. for 15 mins in an incubator. After 15 mins cell 1 μL of 10 μM (10×) forskolin was added to each well. The plate was once again sealed and incubated at 37° C. for 15 mins. After 15 mins 5 μL of cAMP-d2 (acceptor) was added to all wells, including controls. Conversely, 5 μL of monoclonal anti-cAMP Eu3^+ cryptate (donor) was added to only the wells with test compound and non-stimulated cells. Following addition, the plate was sealed, covered with aluminum foil, and incubated at room temperature for 30 mins. After the allotted time cells were read using Flexstation3 and with λex 314 nm and λem 665 nm. For an antagonism platform the procedure was slightly altered. The EC80 of G-1 was recalculated based upon cAMP agonism results. To the plate, 2 μL of (5×) antagonist were added dose wise followed by the addition of 5 μL of cold cell suspension to all wells (top and bottom well were designated as G-1 control and forskolin control, respectively). Cells and antagonists were incubated for 15 mins at 37° C. After 15 mins, 2 μL of the (5×) EC80 of G-1 was added to wells with antagonist. […] Cells were allowed to equilibrate at room temperature for 30 minutes before being read at λex 314 nm and λem 665 nm.

The next assay has as its target T2, ERα (Homo sapiens, UniProt P03372).
T2 construct: purchased Invitrogen (Carlsbad, Calif.)
T2 sequence (P03372 1-595): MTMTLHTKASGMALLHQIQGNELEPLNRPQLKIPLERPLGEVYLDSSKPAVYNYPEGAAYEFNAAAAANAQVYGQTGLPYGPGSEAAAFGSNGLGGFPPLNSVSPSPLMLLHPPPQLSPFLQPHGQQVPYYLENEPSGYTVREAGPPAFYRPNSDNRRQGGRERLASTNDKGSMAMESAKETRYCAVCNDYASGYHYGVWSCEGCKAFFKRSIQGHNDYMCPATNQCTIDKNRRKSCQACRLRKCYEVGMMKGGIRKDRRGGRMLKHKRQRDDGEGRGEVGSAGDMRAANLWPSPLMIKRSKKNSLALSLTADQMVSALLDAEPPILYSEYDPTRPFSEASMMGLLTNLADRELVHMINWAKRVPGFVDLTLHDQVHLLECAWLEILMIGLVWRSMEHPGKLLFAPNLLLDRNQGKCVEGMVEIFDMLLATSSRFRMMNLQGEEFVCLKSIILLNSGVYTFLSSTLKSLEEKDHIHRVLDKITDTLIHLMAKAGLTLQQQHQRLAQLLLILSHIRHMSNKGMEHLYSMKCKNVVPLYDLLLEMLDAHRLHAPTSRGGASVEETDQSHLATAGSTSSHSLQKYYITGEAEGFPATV
In words: ERα PolarScreen fluorescence polarization competitor assay. Format: binding. How it is done: (§1) ERα and ERβ Fluorescence Polarization Assay. The ERα and ERβ PolarScreen™ Competitor Assays by Invitrogen (Carlsbad, Calif.) were purchased. The concentrations of the ERα and ERβ enzyme varied between the two assays. A 4× sample of ERα was prepared for a final concentration of 75 nM. Conversely, a 4× sample of ERβ was prepared for a final concentration of 23 nM within the assay. For both ERα and ERβ a 4× aliquot of Fluoromone was prepared for a final assay concentration of 4.5 nM. Despite the differences in concentration of ERα and ERβ, the binding assay protocol for the two different enzymes remained the same. Drug dilutions were prepared for a 2× dilution in the ER specific buffer that was provided within the assay kit. In addition to the drug dilutions a 2× aliquot of Fluoromone was prepared by adding 10 μL of 4× with 10 μL of ER specific buffer. A 2× dilution of enzyme and fluorophore was achieved by adding equal portions of each to each other. To a black 384-plate well plate, 10 μL of compound were added to the wells followed by 10 μL of the 2× mixture of enzyme and fluoromone. Two controls were included in the plate design. In one control, enzyme and compound were omitted so that only ER specific buffer and fluoromone remained. A separate control contained the enzyme and fluoromone control. […] The plate was incubated at RT for 2 hours before being read with λex 485 nm and λem 535 nm.
Background: Fluorescence polarisation rises when a labelled molecule tumbles more slowly, as on binding a larger partner.

A further assay deals with T3, ERβ (Homo sapiens, UniProt Q92731).
T3 construct: purchased Invitrogen (Carlsbad, Calif.)
As to the kind of experiment: ERβ PolarScreen fluorescence polarization competitor assay. The following applies: below 10 μM. Format: binding. How it is done:
as §1

T1 sequence (Q99527 whole entry): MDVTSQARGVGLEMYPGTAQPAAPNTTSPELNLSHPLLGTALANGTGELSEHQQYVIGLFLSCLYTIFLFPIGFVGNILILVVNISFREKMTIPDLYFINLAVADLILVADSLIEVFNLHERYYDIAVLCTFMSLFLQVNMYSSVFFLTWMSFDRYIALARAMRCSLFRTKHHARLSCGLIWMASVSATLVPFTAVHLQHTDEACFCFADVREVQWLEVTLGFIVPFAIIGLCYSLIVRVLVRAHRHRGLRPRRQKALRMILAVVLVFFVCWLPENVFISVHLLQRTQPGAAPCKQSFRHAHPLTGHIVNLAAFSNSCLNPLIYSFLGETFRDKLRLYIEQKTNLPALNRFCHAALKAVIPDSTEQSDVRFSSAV
T3 sequence (Q92731 whole entry): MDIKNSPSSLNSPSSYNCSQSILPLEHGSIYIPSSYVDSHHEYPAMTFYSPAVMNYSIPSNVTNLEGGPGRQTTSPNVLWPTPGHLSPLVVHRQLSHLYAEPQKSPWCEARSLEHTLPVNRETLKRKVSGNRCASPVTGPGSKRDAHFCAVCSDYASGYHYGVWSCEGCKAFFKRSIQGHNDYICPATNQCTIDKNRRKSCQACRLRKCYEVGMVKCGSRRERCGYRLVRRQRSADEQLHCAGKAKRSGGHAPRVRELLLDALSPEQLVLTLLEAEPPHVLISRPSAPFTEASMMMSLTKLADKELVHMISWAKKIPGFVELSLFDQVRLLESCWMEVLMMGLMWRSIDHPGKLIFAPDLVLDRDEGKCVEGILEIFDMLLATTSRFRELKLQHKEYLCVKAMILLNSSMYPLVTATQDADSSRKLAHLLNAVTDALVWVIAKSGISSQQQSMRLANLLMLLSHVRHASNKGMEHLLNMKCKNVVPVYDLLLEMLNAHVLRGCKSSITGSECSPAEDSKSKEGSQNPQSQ

Usually IC50 stands for the concentration at which inhibition is half-maximal. Regarding `COc1ccc(CNc2ccc(C(C)(C)C)cc2C2CCCCC2)cc1` [Compound 22], the IC50 at GPER [1] turned out to be 874 ± 49 nM.

In the case of `CC(C)(C)c1ccc(NCc2ccc(-c3ccccc3)cc2)c(C2CCCCC2)c1` [Compound 20], the IC50 at GPER [1] is 132 ± 145 nM.

Turning to `CC(C)c1ccc(NCc2ccc3ccccc3c2)c(C2CCCCC2)c1` [Compound 5], the IC50 at GPER [1] was found to be 260 ± 110 nM.

In the case of `CC(C)(C)c1ccc(NCc2ccc(Cl)c(Cl)c2)c(C2CCCCC2)c1` [Compound 25], the half-maximal inhibitory concentration (IC50) on GPER [1] was 657 ± 94 nM.

Regarding `Cc1ccc(CNc2ccc(C(C)(C)C)cc2C2CCCCC2)cc1` [Compound 21], the “Antagonism of G-1 induced inhibition of adenylate cyclase” value on GPER [2] (100 nM) is reported as “also observed, less so”; on GPER [2] (1 μM exposure), “caused a decrease in adenylate cyclase inhibition”. For the same compound, at GPER [2] (EC80 of G-1, 1 μM forskolin, concentration not given), the “Reduction of G-1 induced inhibition of cAMP formation / adenylate cyclase” value is “able to decrease inhibition of adenylate cyclase”. Besides, the ERα binding entry is recorded as “a low level of binding” at ERα (10 μM (highest concentration)) and “do not exhibit binding” on ERα (below 10 μM). Moreover, on ERβ, the ERβ binding result was “do not exhibit binding”. The IC50 at GPER [1] turned out to be 60.8 ± 18 nM.

For `CC(C)(C)c1ccc(NCc2ccccc2)c(C2CCCCC2)c1` [Compound 23], the IC50 on GPER [1] amounted to 331 ± 160 nM.

`CC(C)(C)c1ccc(NCc2ccc(Cl)cc2)c(C2CCCCC2)c1` [Compound 24]: the IC50 at GPER [1] was determined as 141 ± 14 nM.
